The record followed here is US20140066365A1, “USE OF CALIXARENES ASSOCIATED WITH AN ANTIBIOTIC IN THE TREATMENT OF BACTERIAL INFECTIONS” (priority 2011, published 2014).

Holding throughout (type): cell-based
The test system of experiment [1] is EcR3: ESBL-Producing Escherichia coli. Kind of experiment: Antibiogram by the disk diffusion technique. The following applies: for CA-SFM Interpretation: Cd CA-SFM 2011; for Results: Table C1, against Dmin Dmax; for Diameter: Table C1; for diameter in mm: Table C2. On the procedure: The bacterial and antibiogramidentification is carried out by the VITEK 2 system (bioMerieux) and by the disk diffusion technique

Experiment [2] has as its system EcR1: Penicillinase-Producing Escherichia coli without Associated Resistance. Put plainly: Antibiogram by the disk diffusion technique. As to conditions: for Results: EcR1, interpretation of the diameter against Dmin Dmax; for Results / Diameter: Table A1; for MIC mg/L (diameter in mm): EcR1, cells that print a diameter, Table A2; for CA-SFM Interpretation: EcR1, diameter against CA-SFM 2011 limits; for CLSI Interpretation: EcR1, diameter against CLSI 2011 limits; for EUCAST Interpretation: EcR1, diameter against EUCAST 2011 limits; for Diameter: EcR1, disk diffusion. On the procedure:
(§1) 5.1 EcR1: Penicillinase-Producing Escherichia coli without Associated Resistance The bacterial and antibiogramidentification is carried out by the VITEK 2 system (bioMérieux) and by the disk diffusion technique.

Experiment [3] has as its system SaR1: Meticillin-Resistant Staphylococcus aureus without Associated Resistance. Kind of experiment: Antibiogram, MIC by the VITEK 2 system. The following applies: SaR1; for CA-SFM Interpretation: Cc CA-SFM 2011; for CLSI Interpretation: Cc CLSI 2011; for EUCAST Interpretation: Cc EUCAST 2011; for Results: from MIC; for MIC: Staphylococcus aureus, read-out: MIC. On the procedure:
(§2) The bacterial and antibiogramidentification is carried out by the VITEK 2 system (bioMérieux)

Experiment [4] concerns SaR4: Meticillin-Resistant Staphylococcus aureus. Kind of experiment: Antibiogram, MIC by the VITEK 2 system. As to conditions: SaR4; for MIC: Staphylococcus aureus, read-out: MIC. On the procedure: (§3) The bacterial and antibiogramidentification is carried out by the VITEK 2 system (bioMérieux) and by the disk diffusion technique
The subject of experiment [5] is EcR1: Penicillinase-Producing Escherichia coli without Associated Resistance. Kind of experiment: Antibiogram, MIC by the VITEK 2 system. As to conditions: for CA-SFM Interpretation: EcR1, MIC against Cc CA-SFM 2011; for CLSI Interpretation: EcR1, MIC against Cc CLSI 2011; for Results: EcR1, interpretation of the MIC, Table A1; for MIC: Escherichia coli; for EUCAST Interpretation: EcR1, MIC against Cc EUCAST 2011. On the procedure:
as §1

Experiment [6] has as its system EcR2: Cephalosporinase-Hyperproducing Strain of Escherichia coli. Kind of experiment: Antibiogram, MIC by the VITEK 1 system. As to conditions: for Results: EcR2, Table B1; for CA-SFM Interpretation: Cc CA-SFM 2011; for CLSI Interpretation: Cc CLSI 2011; for MIC: Escherichia coli. On the procedure: The bacterial and antibiogramidentification is carried out by the VITEK 1 system (bioMérieux) and by the disk diffusion technique

Experiment [7] deals with PaR5: Pseudomonas aeruginosa. Put plainly: Antibiogram by the disk diffusion technique. As to conditions: for Diameter / Results: Table I1; for Results: against Dmin-Dmax. On the procedure:
as §3

The subject of experiment [8] is PaR3: Pseudomonas aeruginosa. Put plainly: Antibiogram, MIC by the VITEK 2 system. On the procedure: as §2
Where [9] appears, read: EcR1, Table A2, read-out: MIC mg/L (diameter in mm).
The mark [10] stands for this setting: EcR1, VITEK 2, Table A1, read-out: MIC.
[11] abbreviates: EcR2, VITEK 1, Table B1, read-out: MIC.
Where [12] appears, read: EcR2, Table B2, MIC, read-out: MIC.

Values after ≈ are worked out from the molar mass of the structure shown. Where two headings read alike, the source gives them in different places.

Take `O=C(O)c1cn(C2CC2)c2cc(N3CCNCC3)c(F)cc2c1=O` [Ciprofloxacin]: in experiment [1], the “CA-SFM Interpretation” value is recorded as “Susceptible” and the Results result was “Susceptible”. Besides, the Results result in experiment [2] is “Susceptible”.
In the case of `C[C@H]1[C@H](NC(=O)/C(=N\OC(C)(C)C(=O)O)c2csc(N)n2)C(=O)N1S(=O)(=O)O` [Aztreonam], in experiment [2], the “MIC mg/L (diameter in mm)” value came out at 28 mm, the “CA-SFM Interpretation” value is “Susceptible”, the “CLSI Interpretation” value was “Susceptible” and the “EUCAST Interpretation” value is “Susceptible”. Further, in experiment [2], the Diameter is 28 mm and the Results entry was “Susceptible”.
Take `Cc1onc(-c2ccccc2)c1C(=O)N[C@@H]1C(=O)N2[C@@H]1SC(C)(C)[C@@H]2C(=O)O` [Oxacillin]: the “CA-SFM Interpretation” value is reported as “Resistant” in experiment [3] and “Resistant” in experiment [4] (from MIC, Cc CA-SFM 2011). The “CLSI Interpretation” value is “Resistant” in experiment [3] and “Resistant” in experiment [4] (from MIC, Cc CLSI 2011). In addition, the “EUCAST Interpretation” value in experiment [3] is “Resistant”; in experiment [4] (from MIC, Cc EUCAST 2011), “Resistant”. Further, the Results entry in experiment [3] (Table D1) was “Resistant”; in experiment [4] (Table F1, MIC), “Resistant”. Besides, the “MIC mg/L” value in experiment [3] (Table D2) is “≧8 mg/L”. The MIC is at least 8 µg/mL in experiment [3] (Table D1); at least 8 µg/mL in experiment [4] (Table F1); at least 8 µg/mL in experiment [4] (Table F2, MIC).
As to `CCn1cc(C(=O)O)c(=O)c2ccc(C)nc21` [Nalidixic acid], the “CA-SFM Interpretation” value in experiment [5] is given as “Susceptible”; in experiment [6] (EcR2, from MIC), “Resistant”. The “CLSI Interpretation” value in experiment [5] is recorded as “Susceptible”; in experiment [6] (EcR2, from MIC), “Resistant”. Moreover, the Results entry is “Susceptible” in experiment [5] and “Resistant” in experiment [6]. The MIC in experiment [5] (read-out: MIC mg/L) is at most 2 mg/L; in experiment [5] (read-out: MIC mg/L (diameter in mm)), at most 2 mg/L; in experiment [6], at least 32 mg/L; in experiment [6] (read-out: MIC mg/L), at least 32 mg/L.
With `CN(C)[C@@H]1C(O)=C(C(N)=O)C(=O)[C@@]2(O)C(O)=C3C(=O)c4c(O)cccc4[C@@](C)(O)[C@H]3C[C@@H]12` [Tetracycline], the MIC is at most 1 µg/mL in experiment [4] (Table F1) and at most 1 µg/mL in experiment [4] (Table F2, MIC).
On to `CC(=O)OCC1=C(C(=O)O)N2C(=O)[C@@H](NC(=O)Cc3cccs3)[C@H]2SC1` [C1G, Cefalotine], for which the “CA-SFM Interpretation” value was “Susceptible” in experiment [5]; “Resistant” in experiment [1]; “Resistant” in experiment [6] (EcR2, from MIC). Further, the “CLSI Interpretation” value in experiment [5] is on record as “Susceptible”; in experiment [1] (Cd CLSI 2011) it was “Resistant”; in experiment [6] (EcR2, from MIC) it was “Resistant”. Further, the “EUCAST Interpretation” value in experiment [5] is listed as “Susceptible”; in experiment [6] (EcR2, from MIC, Cc EUCAST 2011) it was “Resistant”. Further, the Results result in experiment [5] is recorded as “Susceptible”; in experiment [1], “Resistant”; in experiment [6], “Resistant”; in experiment [2] it was “Intermediate”. The MIC is 4 mg/L (≈ 10.1 µM) in experiment [5] (setting [9]), 4 mg/L (≈ 10.1 µM) in experiment [5] (setting [10]), at least 64 mg/L in experiment [6] (setting [11]) and at least 64 mg/L in experiment [6] (setting [12]). For the same molecule, the Diameter in experiment [1] stood at 6 mm; in experiment [2], 17 mm. The molecule also registered a diameter in mm in experiment [1] of 6 mm.
Consider `CCn1cc(C(=O)O)c(=O)c2cc(F)c(N3CCNCC3)cc21` [Norofloxacin], for which, in experiment [7] (PaR5), the Diameter came to 17 mm and the Results result is “Resistant”.
Take `CCn1cc(C(=O)O)c(=O)c2cc(F)c(N3CCNCC3)cc21` [Norfloxacin]: in experiment [5], the “CA-SFM Interpretation” value is recorded as “Susceptible”, the “CLSI Interpretation” value is recorded as “Susceptible”, the “EUCAST Interpretation” value is listed as “Susceptible” and the Results result is recorded as “Susceptible”. In addition, the MIC in experiment [5] (setting [9]) was at most 0.5 mg/L. Besides, the MIC in experiment [5] (setting [10]) is at most 0.5 mg/L.
Take `O=C1CN(/N=C/c2ccc([N+](=O)[O-])o2)C(=O)N1` [Nitrofurantoin]: the MIC in experiment [5] (setting [9]) is at most 16 mg/L; in experiment [5] (setting [10]), at most 16 mg/L; in experiment [3] (Table D1), at most 16 µg/mL; in experiment [6] (setting [11]) it was at most 25 mg/L; in experiment [6] (setting [12]), at most 25 mg/L; in experiment [4] (Table F1), at most 25 µg/mL. Moreover, the MIC in experiment [4] (Table F2, MIC) was at most 25 µg/mL. The “MIC mg/L” value in experiment [3] (Table D2) is recorded as “≦16 mg/L”.
`C[C@@H](O)[C@H]1C(=O)N2C(C(=O)O)=C(S[C@@H]3CN[C@H](C(=O)N(C)C)C3)[C@H](C)[C@H]12` [Meropenem]: the “CA-SFM Interpretation” value in experiment [8] (Cc CA-SFM 2011) is reported as “Resistant”; in experiment [7] (disk diffusion, PaR5, versus critical diameter CA-SFM 2011) it was “Susceptible”. Further, the “CLSI Interpretation” value is given as “Resistant” in experiment [8] (Cc CLSI 2011) and “Susceptible” in experiment [7] (disk diffusion, PaR5, versus critical diameter CLSI 2011). The “EUCAST Interpretation” value in experiment [8] (Cc EUCAST 2011) is given as “Resistant”; in experiment [7] (disk diffusion, PaR5, versus critical diameter EUCAST 2011, for ** antibiotics the disk load differs and the EUCAST interpretation is not applicable) it was “Susceptible”. For the same molecule, the MIC in experiment [8] (Pseudomonas aeruginosa, Table H2, read-out: MIC) was at least 16 µg/mL; in experiment [8] (Table H1), “≧16”. Also, the figures for the Results result in experiment [8] (Table H1) and in experiment [7] (PaR5) were “Resistant” and “Susceptible”, respectively. The Diameter in experiment [7] (PaR5) amounted to 34 mm. Moreover, in experiment [7] (disk diffusion inhibition diameter, strain PaR5), the diameter in mm was 34 mm.
For `CCn1cc(C(=O)O)c(=O)c2cc(F)c(N3CCN(C)CC3)cc21` [Pefloxacin], the “CA-SFM Interpretation” value in experiment [1] is on record as “Susceptible”; in experiment [6] (EcR2, from MIC), “Resistant”. For the same molecule, the Diameter in experiment [1] came to 23 mm; in experiment [2] it was 26 mm. For the same molecule, the diameter in mm in experiment [1] stood at 23 mm. Moreover, the Results entry in experiment [6] is “Resistant”. Also, the MIC in experiment [6] (setting [11]) and in experiment [6] (setting [12]) was at least 8 mg/L in each case.
As for Quinupristin-dalfopristin, in experiment [3], the “CA-SFM Interpretation” value is listed as “Susceptible”, the “CLSI Interpretation” value is listed as “Susceptible” and the “EUCAST Interpretation” value was “Susceptible”. Further, in experiment [3] (Table D1), the “MIC mg/L” value was “≦0.25 mg/L” and the Results entry is listed as “Susceptible”. Moreover, the “MIC mg/L” value in experiment [3] (Table D2) is on record as “≦0.25 mg/L”.
As for `CO/N=C(\C(=O)N[C@@H]1C(=O)N2C(C(=O)[O-])=C(C[N+]3(C)CCCC3)CS[C@H]12)c1csc(N)n1` [Cefepime], in experiment [2], the “MIC mg/L (diameter in mm)” value amounted to 27 mm, the “CA-SFM Interpretation” value is given as “Susceptible”, the “CLSI Interpretation” value is reported as “Susceptible” and the “EUCAST Interpretation” value is listed as “Susceptible”. In experiment [2], the Diameter was determined as 27 mm and the Results result is reported as “Susceptible”.
